Data as given in patent US20230331739A1, “INDOLO HEPTAMYL OXIME ANALOG CRYSTAL AS PARP INHIBITOR AND METHOD FOR PREPARING SAME” (CHIA TAI TIANQING PHARMACEUTICAL GROUP CO., LTD., priority 2020, published 2023).

Tests used:
[1] = target: PARP1 (Homo sapiens (Human), UniProt P09874); test: PARP-1 enzymatic assay (HT Universal Chemiluminescent PARP Assay kit); type: biochemical
Procedure: Materials: test compounds; HT Universal Chemiluminescent PARP Assay kit (purchased from TREVIGEN); PBS (phosphate buffer saline, purchased from Wisent); Triton X-100 (purchased from Macklin); Envision Multimode Plate Reader (PerkinElmer).
1. Washing solution: Triton X-100 was added to 1×PBS with a final concentration of Triton X-100 of 0.1%.
2. 1×PARP buffer: The 20×PARP buffer in the kit was 20-fold diluted with water to prepare a 1×PARP buffer, which was used to prepare the compounds, enzyme solutions and substrate solutions.
3. 1×Strep-Diluent solution: The 10×Strep-diluent in the kit was 10-fold diluted with water to prepare a 1×Strep-diluent solution.
The test compounds were diluted from 200 μM to 2.56 nM. The DMSO concentration was 100%. 2 μL of each of the inhibitors at various concentration gradients was added to a compound intermediate plate, and 38 μL of the 1×PARP buffer was then added. The two were mixed well for use, and the DMSO concentration was 5% at this time.
a) The 1×PARP buffer was added to a test plate at 50 μL per well, and the test plate was incubated at 25° C. for 30 min. […]
PeroxyGlow A and B in the kit were mixed at a ratio of 1:1, and the mixed solution was added to the test plate at 100 μL per well. Chemiluminescence was immediately read using a PerkinElmer Envision Multimode Plate Reader with an integration time of 0.5 s. […]

[2] = target: CYP1A2 (Homo sapiens (Human), UniProt P05177); test: Inhibition against cytochrome P450 isoenzymes, CYP1A2; type: in vitro ADME; conditions: human liver microsomes
Procedure: The inhibition of the test compound against different subtypes of the human cytochrome P450 isoenzyme was determined. The test compound, a standard inhibitor (100×final concentration) and a mixed substrate working solution were prepared; the microsomes frozen in a refrigerator at −80° C. were taken out and thawed. […]

Chain of CYP1A2 (P05177 whole entry): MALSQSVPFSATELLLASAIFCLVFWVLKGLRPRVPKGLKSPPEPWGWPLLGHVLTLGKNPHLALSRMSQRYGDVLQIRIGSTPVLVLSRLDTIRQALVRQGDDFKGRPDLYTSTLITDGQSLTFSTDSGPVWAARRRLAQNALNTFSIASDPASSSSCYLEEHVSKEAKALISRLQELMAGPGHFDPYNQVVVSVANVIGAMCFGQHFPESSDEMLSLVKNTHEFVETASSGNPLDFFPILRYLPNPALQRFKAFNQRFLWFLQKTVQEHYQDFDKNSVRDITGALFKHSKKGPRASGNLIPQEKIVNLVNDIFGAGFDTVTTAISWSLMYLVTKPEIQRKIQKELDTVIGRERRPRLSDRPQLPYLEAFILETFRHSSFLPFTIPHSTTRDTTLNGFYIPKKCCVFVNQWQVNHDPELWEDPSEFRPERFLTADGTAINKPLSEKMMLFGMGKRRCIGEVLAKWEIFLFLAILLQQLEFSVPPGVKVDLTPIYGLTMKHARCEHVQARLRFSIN
Chain of PARP1 (P09874 whole entry): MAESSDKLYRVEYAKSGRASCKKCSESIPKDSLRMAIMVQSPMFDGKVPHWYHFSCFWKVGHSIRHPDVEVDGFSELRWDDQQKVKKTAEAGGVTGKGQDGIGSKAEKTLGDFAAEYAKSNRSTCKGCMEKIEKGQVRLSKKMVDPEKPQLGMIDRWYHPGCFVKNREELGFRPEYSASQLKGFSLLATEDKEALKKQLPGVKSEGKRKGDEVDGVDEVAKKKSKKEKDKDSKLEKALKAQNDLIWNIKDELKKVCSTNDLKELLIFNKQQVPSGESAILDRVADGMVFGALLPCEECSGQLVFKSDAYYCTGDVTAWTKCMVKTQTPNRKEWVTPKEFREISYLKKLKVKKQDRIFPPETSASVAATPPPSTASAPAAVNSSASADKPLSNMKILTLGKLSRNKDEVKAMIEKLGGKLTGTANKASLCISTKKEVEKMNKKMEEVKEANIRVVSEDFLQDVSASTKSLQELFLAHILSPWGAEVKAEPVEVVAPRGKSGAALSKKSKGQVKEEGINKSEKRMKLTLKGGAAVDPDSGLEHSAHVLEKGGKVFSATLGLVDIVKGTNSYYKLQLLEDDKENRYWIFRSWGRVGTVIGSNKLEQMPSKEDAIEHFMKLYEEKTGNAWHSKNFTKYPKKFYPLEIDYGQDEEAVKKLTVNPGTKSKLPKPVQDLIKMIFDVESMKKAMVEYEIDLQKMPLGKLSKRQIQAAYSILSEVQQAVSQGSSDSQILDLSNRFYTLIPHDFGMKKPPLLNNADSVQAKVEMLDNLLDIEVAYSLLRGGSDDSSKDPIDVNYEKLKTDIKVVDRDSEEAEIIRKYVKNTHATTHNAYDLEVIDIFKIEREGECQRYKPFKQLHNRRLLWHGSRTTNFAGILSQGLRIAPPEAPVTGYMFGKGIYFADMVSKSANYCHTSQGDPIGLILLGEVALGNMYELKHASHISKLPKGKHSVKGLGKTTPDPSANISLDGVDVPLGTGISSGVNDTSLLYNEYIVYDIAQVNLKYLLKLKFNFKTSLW

**Q.** Which IC50 [1] does the source give for `C[C@]1(c2ccc(-c3[nH]c4cc(F)cc5c4c3CONC5=O)cc2)CCCN1` [Compound 1] here?
**A.** The IC50 was 2.3 nM.

**Q.** And the IC50 [2]?
**A.** Its IC50 is greater than 50 µM.
